In paper PMC8956739, “A synthetic lipopeptide targeting top-priority multidrug-resistant Gram-negative pathogens” (Nature Communications, 2022):
Converted amounts (≈) assume the structure as drawn. “And” between values parts separate entries of the source, which are not always exact repeats. Equal values may be shown once. Read-outs that look alike come from different tables or passages of the source. Residues, ends and D or L forms follow the SMILES beside them.

Columns and labels:
[1] = Cell viability after 24 h treatment; assay type: cell-based, human; settings: human, KCNJ16 knockout HK-2 cells (kidney proximal tubular), Cell viability, KCNJ16 KO, KCNJ16 knockout HK-2 cells, 24 h, Fig. 6b
Protocol: (§1) Fig. 6 Transcriptomic changes in human kidney proximal tubular HK-2 cells following treatments with polymyxin B (PMB), colistin (COL), F287, F319, and F365. a Numbers of differentially expressed genes. Distinctive intersections are color-coded. b Cell viability difference (two-tailed Student’s t-test, n = 4 biologically independent cells, Benjamini–Hochberg adjusted P-values) between wild-type HK-2 and KCNJ16 knockout (KO) cells following 24 h treatment with lipopeptides. n.s., not significant; ^*adjusted P < 0.05, ^**adjusted P < 0.01, ^***adjusted P < 0.001. Data are shown as mean ± s.d. and individual data points. c Extracted transcriptional regulatory network from Signor database with 1-step neighbor constraints (enlarged for detail). Source data are provided as a Source Data file.

[2] = tested on: A. baumannii ATCC 19606; assay type: cell-based, Acinetobacter baumannii
Method in brief: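 Read-out is the minimum inhibitory concentration, obtained by serially diluting compound in cation-adjusted Mueller–Hinton medium and exposing each isolate in microdilution format.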

[3] = tested on: A. baumannii AB5075; assay type: cell-based, Acinetobacter baumannii
Method in brief: (§2)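 Compounds were serially diluted in CaMHB, bacteria were added, and the lowest inhibitory concentration was recorded after broth microdilution testing.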

[4] = tested on: A. baumannii FADDI-AB034; assay type: cell-based, Acinetobacter baumannii
Method in brief: as §2

[5] = tested on: A. baumannii FADDI-AB030; assay type: cell-based, Acinetobacter baumannii
Method in brief: as §2

[6] = tested on: MDR clinical isolates of A. baumannii (n = 210, 200 carbapenem-resistant); assay type: cell-based, Acinetobacter baumannii
Method in brief: as §2

[7] = tested on: A. baumannii AB5075; assay: In vitro passaging, emergence of resistance; assay type: cell-based, Acinetobacter baumannii; settings: for OD600: 8 ug/mL; for time to emergence of resistance: 4× MIC, 7-day passaging; for growth over 7 days: 32× MIC
Protocol: Log-phase cultures (OD600 = 0.5, ~10^8 CFU/mL) of A. baumannii AB5075 were inoculated (1:10, v/v) in 200 μL fresh CaMHB (cation-adjusted Mueller–Hinton broth) containing 2, 8 and 16 μg/mL polymyxin B, colistin, F287, and F365 in a 96-well microplate with 4 biological replicates. The cultures were incubated at 37 °C for 12 h before the next dilution (1:10, v/v) with fresh CaMHB. Successive subculturing was conducted for 7 days.

[8] = tested on: KCNJ16 knockout HK-2 cells; assay: Cell viability after 24 h treatment; assay type: cell-based, human; settings: KCNJ16 knockout HK-2 cells, 24 h, Fig. 6b
Protocol: as §1

[9] = Rep1, replicate 1, read-out: Cell viability, KCNJ16 KO, Rep1
[10] = Rep2, replicate 2, read-out: Cell viability, KCNJ16 KO, Rep2
[11] = Rep3, replicate 3, read-out: Cell viability, KCNJ16 KO, Rep3
[12] = Rep4, replicate 4, read-out: Cell viability, KCNJ16 KO, Rep4
[13] = MDR clinical isolates of (n = 210, 200 carbapenem-resistant)
[14] = time 0 h, passage 0, replicates rep1-rep4, raw OD600 (blank OD600 0.125333)
[15] = time 12 h, passage 1, replicates rep1-rep4, raw OD600 (blank OD600 0.114667)
[16] = time 24 h, passage 2, replicates rep1-rep4, raw OD600 (blank OD600 0.0956667)
[17] = time 36 h, passage 3, replicates rep1-rep4, raw OD600 (blank OD600 0.088)
[18] = time 48 h, passage 4, replicates rep1-rep4, raw OD600 (blank OD600 0.104667)
[19] = time 60 h, passage 5, replicates rep1-rep4, raw OD600 (blank OD600 0.122333)
[20] = time 72 h, passage 6, replicates rep1-rep4, raw OD600 (blank OD600 0.095)
[21] = time 84 h, passage 7, replicates rep1-rep4, raw OD600 (blank OD600 0.091)
[22] = time 96 h, passage 8, replicates rep1-rep4, raw OD600 (blank OD600 0.0953333)
[23] = time 108 h, passage 9, replicates rep1-rep4, raw OD600 (blank OD600 0.100667)
[24] = time 120 h, passage 10, replicates rep1-rep4, raw OD600 (blank OD600 0.0983333)
[25] = time 132 h, passage 11, replicates rep1-rep4, raw OD600 (blank OD600 0.0843333)
[26] = time 144 h, passage 12, replicates rep1-rep4, raw OD600 (blank OD600 0.091)
[27] = time 156 h, passage 13, replicates rep1-rep4, raw OD600 (blank OD600 0.129)
[28] = time 168 h, passage 14, replicates rep1-rep4, raw OD600 (blank OD600 0.101)

| Compound | viability at 24 h [1, 9] | viability at 24 h [1, 10] | viability at 24 h [1, 11] | viability at 24 h [1, 12] | MIC A. baumannii ATCC 19606 ([2]; ATCC 19606) | MIC A. baumannii FADDI-AB034 ([4]; FADDI-AB034) | MIC A. baumannii FADDI-AB030 ([5]; FADDI-AB030) | OD600 [7, 14] | OD600 [7, 15] | OD600 [7, 16] | OD600 [7, 17] | OD600 [7, 18] | OD600 [7, 19] | OD600 [7, 20] | OD600 [7, 21] | OD600 [7, 22] | OD600 [7, 23] | OD600 [7, 24] | OD600 [7, 25] | OD600 [7, 26] | further results |
| --- | --- | --- | --- | --- | --- | --- | --- | --- | --- | --- | --- | --- | --- | --- | --- | --- | --- | --- | --- | --- | --- |
| CCCCCCCC(=O)N[C@@H](CCN)C(=O)N[C@H](C(=O)N[C@@H](CN)C(=O)N[C@H]1CCNC(=O)[C@H]([C@@H](C)O)NC(=O)[C@H](CCN)NC(=O)[C@H](CCN)NC(=O)[C@H](CC)NC(=O)[C@@H](CC(C)C)NC(=O)[C@H](CCN)NC1=O)[C@@H](C)O [Lipopeptide F287] (HELM PEPTIDE1{[CCCCCCCC(=O)[*:2]].[Dab].T.[NC[C@H](N[*:1])C(=O)[*:2]].[Dab].[Dab].[dL].[Abu].[Dab].[Dab].T}$PEPTIDE1,PEPTIDE1,5:R3-11:R2$$$V2.0) | 91.7% | 77.1% | 82.8% | 69.6% | 0.25 µg/mL (≈ 0.225 µM) | <0.125 µg/mL | 0.25 µg/mL (≈ 0.225 µM) | 0.15 and 0.135 and 0.14 | 0.134 and 0.126 and 0.13 and 0.129 | 0.091 and 0.089 and 0.086 | 0.088 and 0.089 and 0.095 | 0.095 and 0.092 and 0.093 and 0.111 | 0.105 and 0.107 and 0.117 | 0.097 and 0.09 and 0.087 | 0.094 and 0.097 and 0.099 and 0.113 | 0.111 and 0.113 and 0.11 and 0.117 | 0.115 and 0.107 and 0.116 | 0.108 and 0.113 and 0.118 | 0.121 and 0.108 and 0.118 and 0.122 | 0.116 and 0.114 and 0.12 | MIC A. baumannii AB5075 ([3]; AB5075): 0.5 µg/mL (≈ 0.449 µM); MIC50 [6, 13]: 0.25 µg/mL (≈ 0.225 µM); MIC90 [6, 13]: 0.5 µg/mL (≈ 0.449 µM); potency relative to polymyxin B ([6]; MIC50/MIC90, A. baumannii panel): up to 8 fold; Number of isolates ([6]; isolates with MIC 0.05 µg/mL): 0; Number of isolates ([6]; isolates with MIC 0.125 µg/mL): 15; Number of isolates ([6]; isolates with MIC 0.25 µg/mL): 126; Number of isolates ([6]; isolates with MIC 0.5 µg/mL): 54; Number of isolates ([6]; isolates with MIC 1 µg/mL): 8; Number of isolates ([6]; isolates with MIC 2 µg/mL): 2; Number of isolates ([6]; isolates with MIC 4 µg/mL): 0; Number of isolates ([6]; isolates with MIC 8 µg/mL): 1; Number of isolates ([6]; isolates with MIC 16 µg/mL): 0; Number of isolates ([6]; isolates with MIC 32 µg/mL): 0; Number of isolates ([6]; isolates with MIC 64 µg/mL): 1; Number of isolates ([6]; isolates with MIC >64 µg/mL): 0; OD600 [7, 27]: 0.118 and 0.12 and 0.113 and 0.116; OD600 [7, 28]: 0.096 and 0.095 and 0.092 and 0.117; time to emergence of resistance [7]: ≤ 3 days; growth over 7 days [7]: No growth |
| CCCCCCCC(=O)N[C@@H](CCN)C(=O)N[C@H](C(=O)N[C@@H](CCN)C(=O)N[C@H]1CCNC(=O)[C@H]([C@@H](C)O)NC(=O)[C@H](CCN)NC(=O)[C@H](CCN)NC(=O)[C@H](CC)NC(=O)[C@@H](CC(C)C)NC(=O)[C@H](CCN)NC1=O)[C@@H](C)O [Lipopeptide F319] (HELM PEPTIDE1{[CCCCCCCC(=O)[*:2]].[Dab].T.[Dab].[Dab].[Dab].[dL].[Abu].[Dab].[Dab].T}$PEPTIDE1,PEPTIDE1,5:R3-11:R2$$$V2.0) | 104% | 95.5% | 91.1% | 92.6% | 0.5 µg/mL (≈ 0.443 µM) | <0.125 µg/mL | 0.5 µg/mL (≈ 0.443 µM) |  |  |  |  |  |  |  |  |  |  |  |  |  |  |
| Colistin [reference compound] |  |  |  |  |  |  |  | 0.152 and 0.143 and 0.147 and 0.146 | 0.136 and 0.134 and 0.13 | 0.095 and 0.089 and 0.087 and 0.091 | 0.088 and 0.087 and 0.085 and 0.091 | 0.095 and 0.093 | 0.125 and 0.117 and 0.115 and 0.107 | 0.14 and 0.126 and 0.15 | 0.196 and 0.173 and 0.191 and 0.238 | 0.224 and 0.238 and 0.275 and 0.393 | 0.309 and 0.315 and 0.31 and 0.392 | 0.387 and 0.364 and 0.444 and 0.49 | 0.344 and 0.355 and 0.395 and 0.414 | 0.477 and 0.464 and 0.465 and 0.416 | Cell viability, KCNJ16 KO, Rep2 ([8]; replicate 2): 81.0179; Cell viability, KCNJ16 KO, Rep3 ([8]; replicate 3): 91.8189; Cell viability, KCNJ16 KO, Rep4 ([8]; replicate 4): 66.4023; MIC A. baumannii ATCC 19606 [2]: 1 µg/mL; MIC A. baumannii AB5075 [3]: 0.5 µg/mL; MIC A. baumannii FADDI-AB034 ([4]; carbapenem-resistant isolate): 0.5 µg/mL; MIC A. baumannii FADDI-AB030 ([5]; carbapenem-resistant isolate): 0.5 µg/mL; regrowth observed from day [7]: 4 days; OD600 [7, 27]: 0.339 and 0.382 and 0.394; OD600 [7, 28]: 0.344 and 0.379 and 0.374 and 0.394; time to emergence of resistance [7]: ≤ 3 days; growth over 7 days [7]: No growth |
